Key:
Assay in all cases: Twenty-four hour biofilm growth (crystal violet)
Format in all cases: cell-based
A. actinomycetemcomitans = tested on: A. actinomycetemcomitans
Experimental: (§1) The increase in biofilm formation of the tested bacteria in response to selected saccharides (D-turanose, D-lactitol, myo-inositol, and N-acetyl-D-mannosamine) was investigated by setting up biofilm growth assays in a nutritionally rich medium (brain heart infusion broth (BHI), Oxoid), over 24 hours. Late exponential growth phase liquid cultures were prepared by transferring the respective bacterium from blood agar plates to BHI and overnight incubation at 37° C. in an anaerobic atmosphere for A. viscosus, V. parvula, P. gingivalis, P. intermedia, T. forsythia, A. naeslundii, and C. sputigena, and in a 5% CO2 environment for S. salivarius, S. sanguinis, S. mitis, A. actinomycetemcomitans, S. mutans, and S. gordonii. Overnight cultures were transferred to BHI and adjusted to a concentration of 1×10^7 CFU/ml by measuring the optical density at 600 nm (OD600) (BioRad SmartSpec 3000). For each strain, 200 μl of the bacterial suspension was added to a 96-well plate containing 20 μl of the respective saccharides. Final concentrations of the saccharides were set to 5, 10, 20 and 25 μmol/ml. […] Additionally, for each bacterium tested, a background control, to correct for background staining, was added. This background control contained the bacterium tested and 0.03 weight % chlorhexidine, as an antiseptic. Plates were incubated as previously described. After 24 hrs the supernatant was removed from the wells of the plates. The wells were washed twice with 1×100 μL PBS (phosphate buffered saline), fixed for 20 minutes with 96% vol. ethanol (96% vol. solution in water) and the biofilm retained at the bottom of the wells was stained with 1 weight % crystal violet (1 weight % solution in water). The bound dye was dissolved with 5% vol. acetic acid (5% vol. solution in water). Quantification of the stained biofilm was performed by measuring the absorbance at 630 nm using a Multiskan Ascent microplate reader (Thermo Scientific).
(§2) The experiment was carried out on three different days (thus providing 3 biological replicas) and each day the experiment was carried out in quadruple (thus providing 4 technical replicas) for each combination of bacterium with saccharide and for each control. For each day and for each combination, the average (mean) of the values obtained (as detailed above) for the four technical replicas was calculated to provide a single value for each combination on each day. The values shown in Tables 7a, 7b, 8a, 8b, below, are the average (mean) of the three single values obtained for each combination of bacterium with saccharide.

A. naeslundii = tested on: A. naeslundii
Experimental: as §1, §2

A. viscosus = tested on: A. viscosus
Experimental: as §1, §2

C. sputigena = tested on: C. sputigena
Experimental: as §1, §2

P. gingivalis = tested on: P. gingivalis
Experimental: as §1, §2

P. intermedia = tested on: P. intermedia
Experimental: as §1, §2

S. gordonii = tested on: S. gordonii
Experimental: as §1, §2

S. mitis = tested on: S. mitis
Experimental: as §1, §2

S. mutans = conditions: S mutans
Experimental: as §1, §2

S. salivarius = tested on: S. salivarius
Experimental: as §1, §2

S. sanguinis = tested on: S. sanguinis
Experimental: as §1, §2

T. forsythia = tested on: T. forsythia
Experimental: as §1, §2

V. parvula = tested on: V. parvula
Experimental: as §1, §2

For CC(=O)N[C@H](C=O)[C@@H](O)[C@H](O)[C@H](O)CO [N-acetyl-D-mannosamine, 2-acetamido-2-deoxy-D-mannose], the “biofilm growth: OD 630 nm at 24 hrs divided by OD of control (control = 1)” value (A. actinomycetemcomitans; 5 μmol/ml) was 0.9519, the “biofilm growth: OD 630 nm at 24 hrs divided by OD of control (control = 1)” value (A. actinomycetemcomitans; 10 μmol/ml) was 1.0569 and the “biofilm growth: OD 630 nm at 24 hrs divided by OD of control (control = 1)” value (A. actinomycetemcomitans; 20 μmol/ml) was 0.6532. For the same compound, the “biofilm growth: OD 630 nm at 24 hrs divided by OD of control (control = 1)” value (A. actinomycetemcomitans; 25 μmol/ml) was 0.7158, the “biofilm growth: OD 630 nm at 24 hrs divided by OD of control (control = 1)” value (A. naeslundii; 5 μmol/ml) was 1.3056 and the “biofilm growth: OD 630 nm at 24 hrs divided by OD of control (control = 1)” value (A. naeslundii; 10 μmol/ml) was 1.4302. For the same compound, the “biofilm growth: OD 630 nm at 24 hrs divided by OD of control (control = 1)” value (A. naeslundii; 20 μmol/ml) was 1.1823, the “biofilm growth: OD 630 nm at 24 hrs divided by OD of control (control = 1)” value (A. naeslundii; 25 μmol/ml) was 1.2220 and the “biofilm growth: OD 630 nm at 24 hrs divided by OD of control (control = 1)” value (A. viscosus; 5 μmol/ml) was 0.8126. For the same compound, the “biofilm growth: OD 630 nm at 24 hrs divided by OD of control (control = 1)” value (A. viscosus; 10 μmol/ml) was 0.9165, the “biofilm growth: OD 630 nm at 24 hrs divided by OD of control (control = 1)” value (A. viscosus; 20 μmol/ml) was 0.5093 and the “biofilm growth: OD 630 nm at 24 hrs divided by OD of control (control = 1)” value (A. viscosus; 25 μmol/ml) was 0.6492. For the same compound, the “biofilm growth: OD 630 nm at 24 hrs divided by OD of control (control = 1)” value (C. sputigena; 5 μmol/ml) was 0.9108, the “biofilm growth: OD 630 nm at 24 hrs divided by OD of control (control = 1)” value (C. sputigena; 10 μmol/ml) was 0.9323 and the “biofilm growth: OD 630 nm at 24 hrs divided by OD of control (control = 1)” value (C. sputigena; 20 μmol/ml) was 0.8871. For the same compound, the “biofilm growth: OD 630 nm at 24 hrs divided by OD of control (control = 1)” value (C. sputigena; 25 μmol/ml) was 0.8822, the “biofilm growth: OD 630 nm at 24 hrs divided by OD of control (control = 1)” value (P. gingivalis; 5 μmol/ml) was 0.6683 and the “biofilm growth: OD 630 nm at 24 hrs divided by OD of control (control = 1)” value (P. gingivalis; 10 μmol/ml) was 0.8031. For the same compound, the “biofilm growth: OD 630 nm at 24 hrs divided by OD of control (control = 1)” value (P. gingivalis; 20 μmol/ml) was 0.7270, the “biofilm growth: OD 630 nm at 24 hrs divided by OD of control (control = 1)” value (P. gingivalis; 25 μmol/ml) was 0.8345 and the “biofilm growth: OD 630 nm at 24 hrs divided by OD of control (control = 1)” value (P. intermedia; 5 μmol/ml) was 1.1437. The “biofilm growth: OD 630 nm at 24 hrs divided by OD of control (control = 1)” value (P. intermedia; 10 μmol/ml) was 1.5179, the “biofilm growth: OD 630 nm at 24 hrs divided by OD of control (control = 1)” value (P. intermedia; 20 μmol/ml) was 1.0689 and the “biofilm growth: OD 630 nm at 24 hrs divided by OD of control (control = 1)” value (P. intermedia; 25 μmol/ml) was 1.2252. The “biofilm growth: OD 630 nm at 24 hrs divided by OD of control (control = 1)” value (S. gordonii; 5 μmol/ml) was 0.7178, the “biofilm growth: OD 630 nm at 24 hrs divided by OD of control (control = 1)” value (S. gordonii; 10 μmol/ml) was 1.0041 and the “biofilm growth: OD 630 nm at 24 hrs divided by OD of control (control = 1)” value (S. gordonii; 20 μmol/ml) was 0.5487. The “biofilm growth: OD 630 nm at 24 hrs divided by OD of control (control = 1)” value (S. gordonii; 25 μmol/ml) was 0.6746, the “biofilm growth: OD 630 nm at 24 hrs divided by OD of control (control = 1)” value (S. mitis; 5 μmol/ml) was 2.4328 and the “biofilm growth: OD 630 nm at 24 hrs divided by OD of control (control = 1)” value (S. mitis; 10 μmol/ml) was 4.2456. The “biofilm growth: OD 630 nm at 24 hrs divided by OD of control (control = 1)” value (S. mitis; 20 μmol/ml) was 2.1524, the “biofilm growth: OD 630 nm at 24 hrs divided by OD of control (control = 1)” value (S. mitis; 25 μmol/ml) was 3.0078 and the “biofilm growth: OD 630 nm at 24 hrs divided by OD of control (control = 1)” value (S. mutans; 5 μmol/ml) was 0.8572. The “biofilm growth: OD 630 nm at 24 hrs divided by OD of control (control = 1)” value (S. mutans; 10 μmol/ml) was 0.8329, the “biofilm growth: OD 630 nm at 24 hrs divided by OD of control (control = 1)” value (S. mutans; 20 μmol/ml) was 0.7015 and the “biofilm growth: OD 630 nm at 24 hrs divided by OD of control (control = 1)” value (S. mutans; 25 μmol/ml) was 0.6922. The “biofilm growth: OD 630 nm at 24 hrs divided by OD of control (control = 1)” value (S. salivarius; 5 μmol/ml) was 0.6489, the “biofilm growth: OD 630 nm at 24 hrs divided by OD of control (control = 1)” value (S. salivarius; 10 μmol/ml) was 0.6824 and the “biofilm growth: OD 630 nm at 24 hrs divided by OD of control (control = 1)” value (S. salivarius; 20 μmol/ml) was 0.3314. The “biofilm growth: OD 630 nm at 24 hrs divided by OD of control (control = 1)” value (S. salivarius; 25 μmol/ml) was 0.3520, the “biofilm growth: OD 630 nm at 24 hrs divided by OD of control (control = 1)” value (S. sanguinis; 5 μmol/ml) was 1.5651 and the “biofilm growth: OD 630 nm at 24 hrs divided by OD of control (control = 1)” value (S. sanguinis; 10 μmol/ml) was 2.4890. For the same compound, the “biofilm growth: OD 630 nm at 24 hrs divided by OD of control (control = 1)” value (S. sanguinis; 20 μmol/ml) was 0.5600, the “biofilm growth: OD 630 nm at 24 hrs divided by OD of control (control = 1)” value (S. sanguinis; 25 μmol/ml) was 1.0289 and the “biofilm growth: OD 630 nm at 24 hrs divided by OD of control (control = 1)” value (T. forsythia; 5 μmol/ml) was 0.6028. For the same compound, the “biofilm growth: OD 630 nm at 24 hrs divided by OD of control (control = 1)” value (T. forsythia; 10 μmol/ml) was 0.9745, the “biofilm growth: OD 630 nm at 24 hrs divided by OD of control (control = 1)” value (T. forsythia; 20 μmol/ml) was 0.4562 and the “biofilm growth: OD 630 nm at 24 hrs divided by OD of control (control = 1)” value (T. forsythia; 25 μmol/ml) was 0.5433. For the same compound, the “biofilm growth: OD 630 nm at 24 hrs divided by OD of control (control = 1)” value (V. parvula; 5 μmol/ml) was 0.3811, the “biofilm growth: OD 630 nm at 24 hrs divided by OD of control (control = 1)” value (V. parvula; 10 μmol/ml) was 1.0958 and the “biofilm growth: OD 630 nm at 24 hrs divided by OD of control (control = 1)” value (V. parvula; 20 μmol/ml) was 0.1297. The “biofilm growth: OD 630 nm at 24 hrs divided by OD of control (control = 1)” value (V. parvula; 25 μmol/ml) was 0.3718.
